Holding throughout (assay type): cell-based
The target of assay [1] is T1, human glucagon-like peptide 1 receptor (GLP-1R) (Homo sapiens, UniProt P43220).
T1 construct: expressed in transfected cells
Description: GLP-1 receptor efficacy assay (cAMP AlphaScreen, CHO cells). The conditions noted are these: Table 1B; for Ratio GLP-1/Glucagon: EC50 [GLP-1R]/EC50 [Glucagon-R]; for EC50: same protocol, different laboratory, read-out: EC50 hGLP-1R CHO-K1. The text has this:
(§1) The cDNA encoding either the human glucagon receptor (Glucagon-R) (primary accession number P47871) or the human glucagon-like peptide 1 receptor (GLP-1R) (primary accession number P43220) were synthesized and cloned into a mammalian expression vector containing a Zeocin resistance marker.
(§2) The mammalian expression vectors encoding the Glucagon-R or the GLP-1-R were transfected into Chinese hamster ovary (CHO) cells by the Attractene method method. Stably expressing clones were obtained by Zeocin selection (250 μg/mL) upon limited dilution of cells resistant to the selection pressure. Glucagon-R and GLP-1-R cell clones expressing were picked, propagated and tested in the Glucagon-R and GLP-1-R efficacy assays as described below. One Glucagon-R expressing clone and one GLP-1-R expressing clone were chosen for compound profiling.
(§3) CHO cells expressing the human Glucagon-R, or human GLP-1-R were seeded 24 hours prior to the assay at 30,000 cells per well in 96-well microtiter plates in culture in 100 μl growth medium. On the day of analysis, growth medium was removed and the cells were washed once with 200 μl of assay buffer (Krebs-Ringer-buffer—KRBH). The buffer was removed and the cells were incubated for 15 min at room temperature in 10 μl KRBH (KRBH+10 mM HEPES, 5 mM NaHCO3, 0.1% (V/V) BSA) with 0.1 mM IBMX in deionized water containing increasing concentrations of test peptides. The reaction was stopped by the addition of lysis buffer (0.1% w/v BSA, 5 mM HEPES, 0.3% v/v Tween-20). After cell lysis for 10 min at room temperature, lysates were transferred to 384-well plates and 10 μl of acceptor/donorbead mixture as contained in the AlphaScreen™ cAMP Functional Assay Kit was added. After one hour of incubation at room temperature in the dark, the cAMP content was determined applying the AlphaScreen™ cAMP Functional Assay Kit from Perkin-Elmer according to manufacturer instructions. EC50 and relative efficacies compared to reference compounds (glucagon and GLP-1) were calculated applying computer aided curve fitting. The GLP-1/glucagon ratio is calculated as defined earlier.

Assay [2] has as its target T2, endogenous GLP-1 receptors (Mus musculus, UniProt O35659).
T2 construct: Agonistic activity of the test compounds on endogenous GLP-1 receptors; endogenous in cells
T2 sequence (O35659 22-463): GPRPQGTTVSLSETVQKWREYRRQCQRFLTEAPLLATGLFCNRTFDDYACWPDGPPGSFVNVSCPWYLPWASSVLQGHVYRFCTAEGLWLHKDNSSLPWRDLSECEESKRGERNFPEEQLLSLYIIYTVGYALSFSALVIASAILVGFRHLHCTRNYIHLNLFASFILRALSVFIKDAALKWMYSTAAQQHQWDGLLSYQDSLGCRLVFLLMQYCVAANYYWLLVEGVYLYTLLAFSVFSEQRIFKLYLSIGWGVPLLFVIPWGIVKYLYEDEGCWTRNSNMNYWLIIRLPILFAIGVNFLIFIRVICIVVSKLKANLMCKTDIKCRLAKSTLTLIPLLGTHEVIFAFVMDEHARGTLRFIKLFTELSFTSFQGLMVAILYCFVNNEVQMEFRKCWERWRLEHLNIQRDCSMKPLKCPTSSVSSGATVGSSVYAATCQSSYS
Description: Agonistic activity on endogenous GLP-1 receptor (cAMP, murine insulinoma cell line). As to conditions: intracellular cAMP, 15 minutes at 26° C.; read-out: EC50 GLP-1R (murine insulinoma cells). As for the experimental part:
Agonistic activity of the test compounds on endogenous GLP-1 receptors was determined using a murine insulinoma cell line. Intracellular cAMP was used an indicator of receptor activation.
Cells were cultured for 24 h at a density of 10,000 cells/well in a 384-well plate. Medium was removed and 10 μL KRBH buffer (NaCl 130 mM, KCl 3.6 mM, NaH2PO4 0.5 mM, MgSO4 0.5 mM, CaCl2) 1.5 mM) containing test compound or GLP-1 (at increasing concentrations from […] to 100 nM) or solvent control (0.1% (v/v) DMSO) was added to the wells for 15 minutes at a temperature of 26° C.
The cellular cAMP content is measured using the AlphaScreen cAMP Functional Assay Kit (Perkin Elmer). Measurement was performed using the Envision (PerkinElmer) according to manufacturer's recommendations.
All measurements were performed in quadruplicate.
Results were converted into cAMP concentrations using a cAMP standard curve prepared in KRBH buffer containing 0.1% (v/v) DMSO. The resulting cAMP curves were plotted as absolute cAMP concentrations (nM) over log (test compound concentration) and analyzed using the curve fitting program XLfit.
Parameters calculated to describe the both the potency as well as the agonistic activity of each test compound on the endogenous GLP-1 receptors were:
pEC50 (negative logarithmic value of EC50, a concentration resulting in a half-maximal elevation of cAMP levels, reflecting the potency of the test compound);
Percent control (% CTL)(% cAMP elevation for each test compound concentration normalized based on the GLP-1-induced maximum cAMP response (100% CTL)).

In assay [3] the target is T3, endogenous glucagon receptor (Rattus norvegicus, UniProt P30082).
T3 construct: Agonistic activity of the test compounds on endogenous glucagon receptor; endogenous in cells; host or cells: primary rat hepatocytes
The assay can be described thus: Agonistic activity on endogenous glucagon receptor (glycogen synthesis rate in primary rat hepatocytes). As to conditions: inhibition of glycogen synthesis rate, 3 hours, read-out: EC50 GLP-1R Rat hepat. On the procedure: Agonistic activity of the test compounds on endogenous glucagon receptor was determined by measuring their effect on rate of glycogen synthesis in primary rat hepatocytes. Upon activation of the glucagon receptor, an inhibition of the glycogen synthesis rate is expected. Rate of glycogen synthesis was determined by counting the amount of radioactively labeled glucose incorporated into the cellular glycogen stores in a defined period of time.
Primary rat hepatocytes were cultured at a density of 40,000 cells/well in a 24-well plate for 24 hours at 37° C. and 5% CO2.
Medium was discarded and the cells washed with PBS. 180 μL of KRBH-based buffer containing 0.1% BSA and glucose at a concentration of 22.5 mM was then added to the wells, followed by test compound and 40 μCi/ml D-[U14C] glucose (20 μL each). Incubation was continued for 3 hours.
At the end of the incubation period, the incubation buffer was aspirated and cells washed once with ice-cold PBS before lysis by incubation for 30 min at room temperature with 100 μL 1 mol/l NaOH.
Cell lysates were transferred to 96-well filter plates and glycogen precipitated by incubating the filter-plates for 120 min at 4° C. followed by washing the filter plates 4 times with ice-cold ethanol (70%). The resulting precipitates were filtered to dryness and the amount of incorporated ^14C-glucose determined by using a Topcount scintillation counter according to manufacturer's recommendations.
Wells with vehicle controls (0.1% (v/v) DMSO in KRBH buffer) were included as reference for non-inhibited glycogen synthesis (100% CTL). Wells without added D-[U^14C] glucose were included as controls for non-specific background signal (subtracted from all values). Endogenous glucagon peptide was used as a positive control.
All treatments were performed at least in triplicates.
Parameters calculated to describe the both the potency as well as the agonistic activity of each test compound on the endogenous glucagon receptor are pEC50 and % CTL. % CTL is determined by calculating the percentage of CPM/well in the presence of the test compound compared to the CPM/well of the vehicle control after subtracting the background CPM/well: [CPM/well(basal)−CPM/well(sample)]*100/[CPM/well(basal)−CPM/well(control)]
An activator of the glucagon receptor will result in an inhibition of the glycogen synthesis rate and will give % CTL values between 0% CTL (complete inhibition) and 100% CTL (no observable inhibition).
The resulting activity curves were plotted as absolute counts (unit: cpm/sample) over log (test compound concentration) and analyzed using the curve fitting program XLfit.
pEC50 (negative logarithmic value of EC50) reflects the potency of the test compound.
The terms EC50 and pEC50 quoted in relation to GLP-1R activation could equally be regarded as IC50 and pIC50 in relation to glycogen synthesis.

Assay [4] concerns the target T4, human glucagon receptor (Glucagon-R) (Homo sapiens, UniProt P47871).
T4 construct: expressed in transfected cells
The assay can be described thus: Glucagon receptor efficacy assay (cAMP AlphaScreen, CHO cells). The conditions noted are these: Table 1B; same protocol, different laboratory; read-out: EC50 hGCGR CHO-K1.
From the text: as §1, §2, §3

*1 amine or outer side, *2 acyl side, *3 side chain or, on linkers, in order; H or OH if unused. Where a SMILES comes first, the peptide text is derived from it. Side-chain parts run from the residue outwards. [ ]: non-standard residue; d: D form. The star is where a group is joined. γGlu = O=C(O)[C@H](CCC(=O)[*:2])N[*:1]; Palmitoyl = CCCCCCCCCCCCCCCC(=O)*; Aib = CC(C)(N)C(=O)O

T4 sequence (P47871 26-477): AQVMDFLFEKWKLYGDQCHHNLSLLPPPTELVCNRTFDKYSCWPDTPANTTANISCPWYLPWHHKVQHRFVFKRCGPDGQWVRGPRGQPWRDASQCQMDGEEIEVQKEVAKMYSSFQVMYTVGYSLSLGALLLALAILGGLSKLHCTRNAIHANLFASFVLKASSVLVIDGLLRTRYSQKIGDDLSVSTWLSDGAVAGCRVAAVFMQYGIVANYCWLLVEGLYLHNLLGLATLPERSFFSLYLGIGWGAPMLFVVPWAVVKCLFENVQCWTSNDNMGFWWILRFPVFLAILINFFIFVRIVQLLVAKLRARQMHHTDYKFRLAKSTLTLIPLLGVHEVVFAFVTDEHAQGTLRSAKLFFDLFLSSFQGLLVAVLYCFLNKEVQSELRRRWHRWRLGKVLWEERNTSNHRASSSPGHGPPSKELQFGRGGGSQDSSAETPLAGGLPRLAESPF
T1 sequence (P43220 24-463): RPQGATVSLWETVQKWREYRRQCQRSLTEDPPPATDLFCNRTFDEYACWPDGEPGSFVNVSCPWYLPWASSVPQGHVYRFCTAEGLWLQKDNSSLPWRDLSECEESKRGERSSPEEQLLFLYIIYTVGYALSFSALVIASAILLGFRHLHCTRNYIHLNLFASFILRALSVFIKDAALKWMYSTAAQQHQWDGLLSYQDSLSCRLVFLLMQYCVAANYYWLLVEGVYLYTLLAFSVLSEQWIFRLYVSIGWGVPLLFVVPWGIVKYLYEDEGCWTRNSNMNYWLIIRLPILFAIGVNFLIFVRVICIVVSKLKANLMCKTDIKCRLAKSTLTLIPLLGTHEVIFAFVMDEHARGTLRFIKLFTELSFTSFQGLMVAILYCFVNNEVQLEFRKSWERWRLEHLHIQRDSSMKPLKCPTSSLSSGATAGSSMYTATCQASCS
T3 sequence (P30082 27-485): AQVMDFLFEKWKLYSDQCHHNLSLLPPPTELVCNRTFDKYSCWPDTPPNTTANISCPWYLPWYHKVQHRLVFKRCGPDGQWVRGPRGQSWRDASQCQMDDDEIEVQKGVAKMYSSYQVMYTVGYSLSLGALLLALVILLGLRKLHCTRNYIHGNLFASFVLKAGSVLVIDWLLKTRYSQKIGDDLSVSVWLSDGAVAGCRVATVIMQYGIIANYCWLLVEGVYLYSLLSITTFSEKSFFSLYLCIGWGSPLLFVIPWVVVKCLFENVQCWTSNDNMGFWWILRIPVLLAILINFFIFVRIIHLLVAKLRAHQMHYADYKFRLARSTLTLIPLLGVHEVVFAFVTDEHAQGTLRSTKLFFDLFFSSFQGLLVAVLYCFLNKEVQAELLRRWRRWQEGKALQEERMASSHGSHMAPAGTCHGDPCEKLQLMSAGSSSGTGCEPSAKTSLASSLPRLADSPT

`CCCCCCCCCCCCCCCC(=O)N[C@@H](CCC(=O)NCCCC[C@H](NC(=O)[C@H](CO)NC(=O)[C@H](CCC(=O)O)NC(=O)[C@H](CC(C)C)NC(=O)[C@H](Cc1ccc(O)cc1)NC(=O)[C@H](CCCCN)NC(=O)[C@H](CO)NC(=O)[C@H](Cc1ccc(O)cc1)NC(=O)[C@H](CC(=O)O)NC(=O)[C@H](CO)NC(=O)[C@@H](NC(=O)[C@H](Cc1ccccc1)NC(=O)[C@@H](NC(=O)CNC(=O)[C@H](CCC(N)=O)NC(=O)C(C)(C)NC(=O)[C@@H](N)Cc1c[nH]cn1)[C@@H](C)O)[C@@H](C)O)C(=O)N[C@@H](C)C(=O)N[C@@H](C)C(=O)N[C@@H](Cc1c[nH]cn1)C(=O)N[C@@H](CC(=O)O)C(=O)N[C@@H](Cc1ccccc1)C(=O)N[C@H](C(=O)N[C@@H](CCC(=O)O)C(=O)N[C@@H](Cc1c[nH]c2ccccc12)C(=O)N[C@@H](CC(C)C)C(=O)N[C@@H](CCC(=O)O)C(=O)N[C@@H](CO)C(=O)N[C@@H](C)C(N)=O)C(C)C)C(=O)O` [Compound 23, H-H-Aib-QGTFTSDYSKYLES-K(Hexadecanoyl-isoGlu)-AAHDFVEWLESA-NH2] (H-H[Aib]QGTFTSDYSKYLESK([γGlu-Palmitoyl])AAHDFVEWLESA-NH2): the “Ratio GLP-1/Glucagon” value in assay [1] came to 0.52. Moreover, the half-maximal effective concentration (EC50) in assay [1] stood at 0.13 nM; in assay [2] it was 0.31 nM; in assay [3], 1.32 nM; in assay [4] it was 0.25 nM.

In the case of `CCCCCCCCCCCCCCCC(=O)N[C@@H](CCC(=O)NCCCC[C@H](NC(=O)[C@H](CCC(=O)O)NC(=O)[C@H](CCC(=O)O)NC(=O)[C@H](CC(C)C)NC(=O)[C@H](Cc1ccc(O)cc1)NC(=O)[C@H](CCCCN)NC(=O)[C@H](CO)NC(=O)[C@H](Cc1ccc(O)cc1)NC(=O)[C@H](CC(=O)O)NC(=O)[C@H](CO)NC(=O)[C@@H](NC(=O)[C@H](Cc1ccccc1)NC(=O)[C@@H](NC(=O)CNC(=O)[C@H](Cc1c[nH]cn1)NC(=O)C(C)(C)NC(=O)[C@@H](N)Cc1c[nH]cn1)[C@@H](C)O)[C@@H](C)O)C(=O)N[C@@H](C)C(=O)N[C@@H](C)C(=O)N[C@@H](Cc1c[nH]cn1)C(=O)N[C@@H](CCC(=O)O)C(=O)N[C@@H](Cc1ccccc1)C(=O)N[C@H](C(=O)N[C@@H](CCC(=O)O)C(=O)N[C@@H](Cc1c[nH]c2ccccc12)C(=O)N[C@@H](CC(C)C)C(=O)N[C@@H](CCC(=O)O)C(=O)N[C@@H](CO)C(=O)N[C@@H](C)C(N)=O)C(C)C)C(=O)O` [Compound 19, H-H-Aib-HGTFTSDYSKYLEE-K(Hexadecanoyl-isoGlu)-AAHEFVEWLESA-NH2] (H-H[Aib]HGTFTSDYSKYLEEK([γGlu-Palmitoyl])AAHEFVEWLESA-NH2), in assay [1], the “Ratio GLP-1/Glucagon” value is reported as 3.38. Moreover, the EC50 in assay [1] turned out to be 0.27 nM; in assay [2] it was 0.33 nM; in assay [3] it was 0.06 nM; in assay [4], 0.08 nM.

Regarding `CCCCCCCCCCCCCCCC(=O)N[C@@H](CCC(=O)NCCCC[C@H](NC(=O)[C@H](CCC(=O)O)NC(=O)[C@H](CC(=O)O)NC(=O)[C@H](CC(C)C)NC(=O)[C@H](Cc1ccc(O)cc1)NC(=O)[C@H](CCCCN)NC(=O)[C@H](CO)NC(=O)[C@H](Cc1ccc(O)cc1)NC(=O)[C@H](CC(=O)O)NC(=O)[C@H](CO)NC(=O)[C@@H](NC(=O)[C@H](Cc1ccccc1)NC(=O)[C@@H](NC(=O)CNC(=O)[C@H](CCC(N)=O)NC(=O)[C@@H](CO)NC(=O)[C@@H](N)Cc1c[nH]cn1)[C@@H](C)O)[C@@H](C)O)C(=O)N[C@@H](C)C(=O)N[C@@H](C)C(=O)N[C@@H](CCCCN)C(=O)N[C@@H](CC(=O)O)C(=O)N[C@@H](Cc1ccccc1)C(=O)N[C@H](C(=O)N[C@@H](CCC(=O)O)C(=O)N[C@@H](Cc1c[nH]c2ccccc12)C(=O)N[C@@H](CC(C)C)C(=O)N[C@@H](CCC(=O)O)C(=O)N[C@@H](CO)C(=O)N[C@@H](C)C(N)=O)[C@@H](C)CC)C(=O)O` [Compound 25, H-H-DSer-QGTFTSDYSKYLDE-K(Hexadecanoyl-isoGlu)-AAKDFIEWLESA-NH2], the “Ratio GLP-1/Glucagon” value in assay [1] is listed as 1.94. The EC50 in assay [1] worked out at 0.31 nM; in assay [2], 0.41 nM; in assay [3] it was 0.15 nM; in assay [4], 0.16 nM.

Values taken from patent US10253081B2, “Glucagon analogues” (Zealand Pharma A/S, priority 2012, dated 2019).
